Experimental data reported in PubChem BioAssay AID1645861 (Buhrlage Lab, Dana-Farber Cancer Institute and Novartis …, 2021).
The source made the active and inactive calls.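 How the source made its calls: active means compounds whose peak USP7 inhibition across the dose series reached 30% or more; inactive means the rest.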

Each compound was assayed against Ubiquitin carboxyl-terminal hydrolase 7 (Homo sapiens) (UniProt Q93009) (assay: Ubiquitin-specific protease 7 DUB inhibitors, concentration-effect, biochemical, validation of primary hits (AID 1645861)). Details: purified USP7, Ub-rhodamine cleavage fluorescence, 60 min.
Ubiquitin carboxyl-terminal hydrolase 7 (Homo sapiens), sequence (Q93009 whole entry, looked up): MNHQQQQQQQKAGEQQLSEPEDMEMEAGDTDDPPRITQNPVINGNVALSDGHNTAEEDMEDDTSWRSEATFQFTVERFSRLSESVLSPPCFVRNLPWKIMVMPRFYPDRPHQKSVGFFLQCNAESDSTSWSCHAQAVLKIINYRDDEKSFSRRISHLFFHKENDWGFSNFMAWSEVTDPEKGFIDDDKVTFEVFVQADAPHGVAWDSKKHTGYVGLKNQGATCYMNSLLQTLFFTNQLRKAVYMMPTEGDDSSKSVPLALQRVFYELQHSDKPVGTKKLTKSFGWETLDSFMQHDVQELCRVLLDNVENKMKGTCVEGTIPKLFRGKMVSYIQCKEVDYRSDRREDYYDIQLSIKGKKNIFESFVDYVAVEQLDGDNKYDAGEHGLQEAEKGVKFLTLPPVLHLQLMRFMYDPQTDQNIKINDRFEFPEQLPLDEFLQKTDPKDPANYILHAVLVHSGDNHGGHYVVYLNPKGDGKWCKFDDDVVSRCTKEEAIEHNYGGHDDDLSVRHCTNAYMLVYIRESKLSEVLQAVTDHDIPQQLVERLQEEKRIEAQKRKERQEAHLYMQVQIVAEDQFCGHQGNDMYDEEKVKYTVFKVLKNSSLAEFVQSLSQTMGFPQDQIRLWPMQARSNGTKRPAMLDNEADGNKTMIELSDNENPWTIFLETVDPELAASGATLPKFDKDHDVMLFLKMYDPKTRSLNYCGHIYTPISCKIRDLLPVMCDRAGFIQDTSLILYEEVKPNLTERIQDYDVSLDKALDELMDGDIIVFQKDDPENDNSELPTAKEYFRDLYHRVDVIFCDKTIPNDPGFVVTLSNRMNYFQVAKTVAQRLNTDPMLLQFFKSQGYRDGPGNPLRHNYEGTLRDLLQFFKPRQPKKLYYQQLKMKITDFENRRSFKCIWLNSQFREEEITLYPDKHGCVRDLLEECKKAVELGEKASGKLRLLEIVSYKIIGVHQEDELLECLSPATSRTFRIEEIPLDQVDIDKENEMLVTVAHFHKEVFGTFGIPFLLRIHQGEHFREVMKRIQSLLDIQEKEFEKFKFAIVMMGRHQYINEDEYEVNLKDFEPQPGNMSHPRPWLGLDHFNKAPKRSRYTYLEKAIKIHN

| Compound | IC50 |
| --- | --- |
| COC(=O)c1ccccc1NC(=O)Cn1c(=O)n(CCCC(=O)NCc2ccco2)c(=O)c2ccccc21 | > 50 µM (inactive) |
| O=C(Nc1cccc(Cl)c1)c1ncn2c1CNS(=O)(=O)c1ccccc1-2 | > 50 µM (inactive) |
| O=C1c2c(O)c(Cl)cc3c2[C@@]2(Oc4ccc(O)c5c4[C@]3(O2)[C@@H]2O[C@@H]2C5=O)[C@@H]2O[C@H]12 | 16.3 µM |
| COCCn1c(=O)[nH]c2cc(C(=O)NCCNc3ccc([N+](=O)[O-])cc3C#N)ccc2c1=O | > 50 µM (inactive) |
| COc1ccc(-c2nc(Cn3nnc(C(=O)Nc4ccc(C)c(C)c4)c3N)c(C)o2)cc1 | > 50 µM (inactive) |
| COc1c(O)cc(CC(=O)O)c(C(C)=O)c1O | 47.4 µM |
| Cc1ccc2nc(CNc3ccc(F)cc3C)cc(=O)n2c1 | > 50 µM (inactive) |
| O=C(Cn1cc(C(=O)C(F)(F)F)c2cc(Br)ccc21)N1CCc2ccccc21 | > 50 µM (inactive) |
| COc1cc(OC)c(NC(=O)c2cc(-c3ccccn3)n[nH]2)cc1Cl | > 50 µM (inactive) |
| COc1cc2c(c(OCC(=O)Nc3ccc4c(c3)OCCO4)c1)C(=O)O[C@@H](C)CCCC(=O)CCCCC2 | > 50 µM (inactive) |
| O=C1c2c(O)ccc(O)c2C2(Oc3cccc4cccc(c34)O2)C2OC12 (stereo unspecified) | > 50 µM (inactive) |
| O=C(NCc1ccc2c(c1)OCO2)c1cc2c(s1)CCC2 | > 50 µM (inactive) |
| COc1ccc(-c2nc(SCC(=O)Oc3c(C)cccc3C)n3[nH]c(=O)cc3n2)cc1 | > 50 µM (inactive) |
| O=C(c1cnc2[nH][nH]c(=O)c2c1)c1cc(Cl)cc(Cl)c1O | 15.1 µM |
| Cn1c(CCNC(=O)c2[nH]nc3c2CCc2ccccc2-3)nc2ccccc21 | > 50 µM (inactive) |
| CC[C@@H](C(=O)[C@@H](C)[C@@H](O)[C@H](C)CCc1ccc(C)c(O)c1C(=O)O)[C@@H]1O[C@](CC)([C@H]2CC[C@](O)(CC)[C@H](C)O2)C[C@@H]1C | 28.6 µM |
| Cc1cccc(OCCn2c(CCNC(=O)C3CCCCC3)nc3ccccc32)c1 | > 50 µM (inactive) |
| N#Cc1c(-c2ccc(Cl)cc2)cc(-c2cccc(Br)c2)[nH]c1=O | > 50 µM (inactive) |
| COc1cccc2cc(C(=O)Nc3nc(-c4ccncc4)cs3)oc12 | 18.3 µM |

| Compound | IC50 |
| --- | --- |
| O=C(/C=C/c1c(F)cccc1Cl)N1CCc2ccccc2C1 | > 50 µM (inactive) |
| Cc1[nH]nc(NC(=O)C2COc3ccccc3O2)c1-c1ccccc1 (stereo unspecified) | > 50 µM (inactive) |
| COc1cc(OC)cc(N2C(=O)N(CC(=O)c3ccc(Br)cc3)c3ccccc3S2(=O)=O)c1 | > 50 µM (inactive) |
| CN(C)[C@H]1C(=O)C(C(N)=O)=C(O)C2(O)C(=O)C3=C(O)c4c(O)cccc4C(C)(O)C3C(O)C12 (stereo partly specified) | 34.1 µM |
| Cc1ccc(-c2cc(C(F)F)n3ncc(C(=O)Nc4ccc(O)cc4)c3n2)cc1 | > 50 µM (inactive) |
| C[C@H](Cc1cc2c(cc1O)OCO2)[C@@H](C)Cc1cc2c(cc1O)OCO2 | > 50 µM (inactive) |
| O=C(c1ccco1)N1CCC2(CC1)CC1(CO2)Nc2ccccc2-n2cccc21 (stereo unspecified) | > 50 µM (inactive) |
| Cc1ccc(NC(=O)Nc2ccc(C)n(CC(=O)Nc3ccc(C)c(C)c3)c2=O)cc1 | 38.8 µM |
| O=C1C(=O)N(c2nc3ccc(F)cc3s2)C(c2ccc(F)cc2)/C1=C(\O)c1ccc(F)cc1 (stereo unspecified) | 30.6 µM |
| O=C(NCCc1nc2ccccc2n1CCOc1ccccc1Cl)C1CCCCC1 | > 50 µM (inactive) |
| CCOc1ccc2c(c1)c(=O)c(C(=O)c1ccc(C)cc1)cn2CC(=O)Nc1ccc(C)cc1 | > 50 µM (inactive) |
| O=C(Nc1ccc(F)cc1)Nc1ccccc1OCc1cc(=O)n2ccccc2n1 | > 50 µM (inactive) |
| O=C(Cn1c(=O)n(CC2CCC(C(=O)NCCc3ccccc3)CC2)c(=O)c2ccccc21)NCc1ccco1 (stereo unspecified) | > 50 µM (inactive) |
| COc1ccc(Sc2nc3ccccc3n3cnnc23)cc1 | > 50 µM (inactive) |
| O=C(NCCc1ccccc1)c1ccc2c(=O)n(Cc3ccco3)c(=O)n(Cc3cccc([N+](=O)[O-])c3)c2c1 | 13.4 µM |
| CCCCCCCCCC(CCCCCCCCCC(=O)O)O[C@H]1O[C@@H](COC(C)=O)[C@H](O)[C@@H](OC(=O)CC(=O)O)[C@H]1O (stereo partly specified) | > 50 µM (inactive) |
| O=C(c1ccccn1)N1CCC2(CC1)CC1(CO2)Nc2ccccc2-n2cccc21 (stereo unspecified) | > 50 µM (inactive) |
| Cc1cc(C)cc(NC(=O)Nc2ccccc2OCc2cc(=O)n3c(ncn3C(C)C)n2)c1 | > 50 µM (inactive) |
| CC1CCCN(S(=O)(=O)c2ccc(-n3cnc(C(=O)NC4CC4)c3)nc2)C1 (stereo unspecified) | > 50 µM (inactive) |

| Compound | IC50 |
| --- | --- |
| Cc1ccc(Nc2nc(O)c(CC(=O)Nc3cccc(Cl)c3C)s2)cc1C | > 50 µM (inactive) |
| O=C(Cc1ccc(-n2c(=O)c3ccccc3n(CC(=O)Nc3ccc(Cl)cc3Cl)c2=O)cc1)NCc1ccco1 | > 50 µM (inactive) |
| O=C(CCn1c(=O)c2ccccc2n(Cc2ccccc2F)c1=O)NCc1ccco1 | > 50 µM (inactive) |
| O=C(CCCc1nnc2c(=O)n(-c3cccc(F)c3)ccn12)NCc1ccc(Cl)cc1 | > 50 µM (inactive) |
| C[C@H](NC(=O)Cc1ccccc1F)c1nc2cc(-c3ccccc3F)ncn2n1 | > 50 µM (inactive) |
| Cn1c(=O)c(C(=O)Nc2ccc(Br)cc2)nc2ccccc21 | > 50 µM (inactive) |
| Cc1nn(-c2ccccc2)c2c1C1(C(=O)Nc3ccccc31)N1C(=N2)Sc2ccccc21 (stereo unspecified) | 3.39 µM |
| CCOc1cccc(-c2noc(-c3nn(-c4ccccc4)ccc3=O)n2)c1 | > 50 µM (inactive) |
| O=c1c2ccccc2oc2nc(-c3cccs3)n(-c3ccccc3)c(=O)c12 | > 50 µM (inactive) |
| COc1ccc(C(=O)COC(=O)c2ccccc2NS(=O)(=O)c2ccc(O)c([N+](=O)[O-])c2)cc1 | 49.3 µM |
| CCOC(=O)c1cc2c(ccn2-c2ccc(F)cc2)n1CC(=O)Nc1ccc2c(c1)OCCO2 | > 50 µM (inactive) |
| C/C=C/C=C/[C@@H]1Cc2cc(O)cc(O)c2O1 | > 50 µM (inactive) |
| COc1cc2c(=O)n(CCC(=O)NC3CCCC3)c(=O)n(CC(=O)Nc3cccc(Cl)c3)c2cc1OC | > 50 µM (inactive) |
| CCOc1ccc2c(c1)c(=O)c(C(=O)c1ccccc1)cn2CC(=O)Nc1ccc2c(c1)OCCO2 | > 50 µM (inactive) |
| COc1ccc(NC(=O)Cn2cc(C(=O)c3ccccc3)c(=O)c3cc(Cl)ccc32)cc1OC | > 50 µM (inactive) |
| COC(=O)c1c(OC)cc2c(c1C)Oc1c(Cl)c(O)c(Cl)c(C)c1C(=O)O2 | > 50 µM (inactive) |
| COc1ccc(NC(=O)Cn2c(=O)n(-c3ccc(CC(=O)NCc4ccco4)cc3)c(=O)c3ccccc32)cc1Cl | > 50 µM (inactive) |
| CCOC(=O)c1ccc(NC(=O)Cn2c(=O)n(CC(=O)NCc3ccco3)c(=O)c3ccccc32)cc1 | > 50 µM (inactive) |

Continued, values first:

| IC50 | Compound |
| --- | --- |
| > 50 µM (inactive) | COC(=O)c1ccc(Nc2cc(C)nc3cc(C(F)(F)F)ccc23)cc1 |
| > 50 µM (inactive) | Cc1cc(=O)n2c3c(c4c(cc13)c(CO)cc(=O)n4C)OC2 |
| > 50 µM (inactive) | O=C(CSc1nc2c(cnn2-c2ccccc2)c(=O)[nH]1)Nc1ccc(Cl)cc1F |
| > 50 µM (inactive) | CCCCCC(=O)C(CCCC)c1oc(=O)c(CCCC)c(O)c1CCCC (stereo unspecified) |
| 48 µM | Cc1ccc(Nc2nc3c(S(=O)(=O)c4ccccc4)nnn3c3ccccc23)c(C)c1 |
| > 50 µM (inactive) | O=C1c2ccccc2-c2nnc(-c3ccncc3)cc21 |
| > 50 µM (inactive) | O=C(NCc1ccc(F)cc1)c1cccc(Nc2nc3ccccc3n3cnnc23)c1 |
| > 50 µM (inactive) | O=C(CSc1nnc2n(-c3ccccc3)c(=O)c3ccccc3n12)c1ccc(F)cc1 |
| > 50 µM (inactive) | O=C(CCn1c(=O)c2ccccc2n(CC(=O)OCc2ccccc2)c1=O)NCc1ccc2c(c1)OCO2 |
| > 50 µM (inactive) | CCOc1ccc(-c2noc(-c3nn(-c4cccc(OC)c4)ccc3=O)n2)cc1 |
| > 50 µM (inactive) | CC(NC(=O)c1ccccc1)c1nc2ccccc2n1CC(=O)Nc1ccc(OC(F)(F)F)cc1 (stereo unspecified) |
| > 50 µM (inactive) | O=C(Nc1cc(F)c2nc(N3CCOCC3)ccc2c1)C1CC1 |
| > 50 µM (inactive) | O=C(Nc1cccc(F)c1)Nc1cccc(-c2nnc(-c3ccccc3)o2)c1 |
| > 50 µM (inactive) | O=C(NC(Cc1ccccc1)c1nc2ccccc2[nH]1)C1CC1 (stereo unspecified) |
| > 50 µM (inactive) | CC(OC(=O)c1cc(S(=O)(=O)Nc2ccccc2F)ccc1Cl)C(=O)Nc1ccc([N+](=O)[O-])cc1C(F)(F)F (stereo unspecified) |
| > 50 µM (inactive) | O=C(/C=C/c1ccc(F)cc1)N1CCc2ccccc2C1 |
| > 50 µM (inactive) | Cn1c2ccccc2c(=O)c2c(=O)n(Cc3ccccc3)c(-c3ccco3)nc21 |
| > 50 µM (inactive) | CC(=O)N1CCc2cc(S(=O)(=O)NC(Cc3ccccc3)C(=O)Nc3cccc(Cl)c3C)ccc21 (stereo unspecified) |
| > 50 µM (inactive) | O=C(NCc1ccco1)c1ccc(Cn2c(=O)c3sccc3n(Cc3cc(=O)n4ccccc4n3)c2=O)cc1 |
| > 50 µM (inactive) | O=C(CCCc1nnc2c(=O)n(-c3cccc(F)c3)ccn12)NCc1ccc(F)cc1 |
| 43.9 µM | COc1ccccc1-c1nc(-c2cn(-c3ccc(F)cc3)nn2)no1 |
| > 50 µM (inactive) | Cc1ccc(CNC(=O)CCCn2c(=O)c3sccc3n(CC(=O)Nc3cc(Cl)ccc3C)c2=O)cc1 |
| > 50 µM (inactive) | CCc1nc(SCC(=O)Nc2ccc(C)cc2C)c2oc3ccccc3c2n1 |
| > 50 µM (inactive) | Cc1ccc(CNC(=O)Cn2c(=O)n(CCCC(=O)NCc3ccc(F)cc3)c(=O)c3ccccc32)cc1 |
| > 50 µM (inactive) | Cc1cc(C(F)(F)F)n2nc(C3CCN(C(=O)c4cnn(C)c4C)C3)cc2n1 (stereo unspecified) |
| > 50 µM (inactive) | CC(C)CCCCCCCCCCC(=O)N(C)[C@H](CO)C(=O)N[C@H](C)C(=O)NCC(=O)N(C)C1C(=O)N[C@@H](C)C(=O)NC(C(=O)O)Cc2ccc(O)c(c2)-c2cc1ccc2O (stereo partly specified) |
| > 50 µM (inactive) | CCc1ccc(NC(=O)C(C)OC(=O)/C=C/c2ccc(S(=O)(=O)Nc3cccc(S(N)(=O)=O)c3)cc2)cc1 (stereo unspecified) |
| > 50 µM (inactive) | COc1ccc(OC)c(NC(=O)c2sc(-c3ccccc3)nc2C)c1 |
| > 50 µM (inactive) | CCCn1cc(C(=O)N2CCC3(CC2)CC2(CO3)Nc3ccccc3-n3cccc32)c(C)n1 (stereo unspecified) |
| > 50 µM (inactive) | COc1ccc(/C=C/C(=O)Nc2cccc(S(=O)(=O)Nc3ccccc3Cl)c2)c(OC)c1 |
